One experiment addresses T1, human orexin-2 receptor (Homo sapiens, UniProt O43614).
T1 construct: expressed in transfected cells; host or cells: CHO cells (G418 selection)
T1 sequence (O43614 1-444): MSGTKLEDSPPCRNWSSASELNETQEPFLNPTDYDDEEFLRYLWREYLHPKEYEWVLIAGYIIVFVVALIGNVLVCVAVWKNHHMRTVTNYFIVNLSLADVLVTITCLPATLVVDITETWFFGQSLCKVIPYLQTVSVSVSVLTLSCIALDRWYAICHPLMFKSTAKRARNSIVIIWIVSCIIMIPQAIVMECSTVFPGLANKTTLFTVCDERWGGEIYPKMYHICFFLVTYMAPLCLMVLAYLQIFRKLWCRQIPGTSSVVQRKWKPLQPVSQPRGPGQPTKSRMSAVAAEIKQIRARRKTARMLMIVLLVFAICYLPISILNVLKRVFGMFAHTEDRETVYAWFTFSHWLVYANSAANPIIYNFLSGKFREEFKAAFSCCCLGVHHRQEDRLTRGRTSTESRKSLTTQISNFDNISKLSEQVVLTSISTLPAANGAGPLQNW
The experiment is described as follows: OX2R FLIPR Ca flux assay (CHO cells). The note with it: for IC50: CHO cells expressing human orexin-2 receptor, agonist 70 pM Ala-6,12 orexin-A; for Fold Selectivity OX2R vs. OX1R: ratio of OX1R FLIPR to OX2R FLIPR. In kind it is cell-based. As to the method:
(§1) The utility of the compounds in accordance with the present invention as orexin receptor OX1R and/or OX2R antagonists may be readily determined without undue experimentation by methodology well known in the art, including the “FLIPR Ca^+ Flux Assay” (Okumura et al., Biochem. Biophys. Res. Comm. 280:976-981, 2001). In a typical experiment the OX1 and OX2 receptor antagonistic activity of the compounds of the present invention was determined in accordance with the following experimental method. For intracellular calcium measurements, Chinese hamster ovary (CHO) cells expressing the rat orexin-1 receptor or the human orexin-2 receptor, are grown in Iscove's modified DMEM containing 2 mM L-glutamine, […], 1% hypoxanthine-thymidine supplement, 100 U/ml penicillin, 100 μg/ml streptomycin and 10% heat-inactivated fetal calf serum (FCS). The cells are seeded at 20,000 cells/well into Becton-Dickinson black 384-well clear bottom sterile plates coated with poly-D-lysine. All reagents were from GIBCO-Invitrogen Corp. The seeded plates are incubated overnight at 37° C. and 5% CO2. Ala-6,12 human orexin-A as the agonist is prepared as a 1 mM stock solution in 1% bovine serum albumin (BSA) and diluted in assay buffer (HBSS containing 20 mM HEPES, 0.1% BSA and 2.5 mM probenecid, pH7.4) for use in the assay at a final concentration of 70 pM. Test compounds are prepared as 10 mM stock solution in DMSO, then diluted in 384-well plates, first in DMSO, then assay buffer. On the day of the assay, cells are washed 3 times with 100 μl assay buffer and then incubated for 60 min (37° C., 5% CO2) in 60 μl assay buffer containing 1 μM Fluo-4AM ester, 0.02% pluronic acid, and 1% BSA. The dye loading solution is then aspirated and cells are washed 3 times with 100 μl assay buffer. 30 μl of that same buffer is left in each well. Within the Fluorescent Imaging Plate Reader (FLIPR, Molecular Devices), test compounds are added to the plate in a volume of 25 μl, incubated for 5 min and finally 25 μl of agonist is added. Fluorescence is measured for each well at 1 second intervals for 5 minutes and the height of each fluorescence peak is compared to the height of the fluorescence peak induced by 70 pM Ala-6,12 orexin-A with buffer in place of antagonist. For each antagonist, IC50 value (the concentration of compound needed to inhibit 50% of the agonist response) is determined. Alternatively, compound potency can be assessed by a radioligand binding assay (described in Bergman et. al. Bioorg. Med. Chem. Lett. 2008, 18, 1425-1430) in which the inhibition constant (Ki) is determined in membranes prepared from CHO cells expressing either the OX1 or OX2 receptor. The intrinsic orexin receptor antagonist activity of a compound which may be used in the present invention may be determined by these assays.

The target in a further experiment is T2, rat orexin-1 receptor (Rattus norvegicus, UniProt P56718).
T2 construct: expressed in transfected cells; host or cells: CHO cells (G418 selection)
T2 sequence (P56718 1-416): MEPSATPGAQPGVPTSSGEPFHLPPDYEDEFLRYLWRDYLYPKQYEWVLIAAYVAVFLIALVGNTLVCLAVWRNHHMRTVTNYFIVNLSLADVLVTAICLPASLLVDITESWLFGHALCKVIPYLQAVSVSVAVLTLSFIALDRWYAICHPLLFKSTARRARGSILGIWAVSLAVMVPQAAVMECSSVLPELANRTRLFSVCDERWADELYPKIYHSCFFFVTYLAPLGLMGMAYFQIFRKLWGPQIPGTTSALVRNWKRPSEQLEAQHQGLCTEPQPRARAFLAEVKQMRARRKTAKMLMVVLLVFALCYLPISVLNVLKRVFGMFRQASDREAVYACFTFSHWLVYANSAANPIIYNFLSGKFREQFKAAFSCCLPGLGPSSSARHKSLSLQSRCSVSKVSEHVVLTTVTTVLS
Briefly: OX1R FLIPR Ca flux assay (CHO cells). The note with it: CHO cells expressing rat orexin-1 receptor; agonist 70 pM Ala-6,12 orexin-A. It counts as cell-based. As for the experimental part: as §1

As for `Cc1oc(N2CCCN(C(=O)c3ccc(F)cc3-n3nccn3)CC2)nc1C(C)(C)O` [Example 18, 2-[2-(4-{[4-fluoro-2-(2H-1,2,3-triazol-2-yl)phenyl]carbonyl}-1,4-diazepan-1-yl)-5-methyl-1,3-oxazol-4-yl]propan-2-ol], on human orexin-2 receptor, the IC50 is 20 nM and the “Fold Selectivity OX2R vs. OX1R” value was 145 fold. Moreover, the IC50 at rat orexin-1 receptor was determined as 2900 nM.
Turning to `CCOc1ccccc1C(=O)N1CCCN(c2nc(C(C)(C)O)c(C)o2)CC1` [Example 19, 2-(2-{4-[(2-ethoxyphenyl)carbonyl]-1,4-diazepan-1-yl}-5-methyl-1,3-oxazol-4-yl)propan-2-ol], the figures for the IC50 at human orexin-2 receptor and at rat orexin-1 receptor were 19 nM and 3240 nM, respectively. At human orexin-2 receptor, the “Fold Selectivity OX2R vs. OX1R” value came out at 170 fold.
In the same order, the values of `Cc1oc(N2CCCN(C(=O)c3ccccc3-n3cccn3)CC2)nc1C(C)(C)O` [Example 20, 2-[5-methyl-2-(4-{[2-(1H-pyrazol-1-yl)phenyl]carbonyl}-1,4-diazepan-1-yl)-1,3-oxazol-4-yl]propan-2-ol] are 35 nM, 6290 nM and 179 fold.
In the same order, the values of `CCOc1ncccc1C(=O)N1CCCN(c2nc(C(C)(C)O)c(C)o2)CC1` [Example 21, 2-(2-{4-[(2-ethoxypyridin-3-yl)carbonyl]-1,4-diazepan-1-yl}-5-methyl-1,3-oxazol-4-yl)propan-2-ol] are 34 nM, 7890 nM and 231 fold.
Turning to `CC(C)(O)c1csc(N2CCCN(C(=O)c3cccnc3OCC(F)F)CC2)n1` [Example 22, (2-(2,2-difluoroethoxy)pyridin-3-yl)(4-(4-(2-hydroxypropan-2-yl)thiazol-2-yl)-1,4-diazepan-1-yl)methanone], at human orexin-2 receptor, the IC50 was 90 nM and the “Fold Selectivity OX2R vs. OX1R” value is listed as above 111 fold. This compound also yielded an IC50 on rat orexin-1 receptor above 10000 nM.
On the same counts, the results for `CC(C)(O)c1csc(N2CCCN(C(=O)c3cccnc3OCC(F)(F)F)CC2)n1` [Example 23, (4-(4-(2-hydroxypropan-2-yl)thiazol-2-yl)-1,4-diazepan-1-yl)(2-(2,2,2-trifluoroethoxy)pyridin-3-yl)methanone] are 57 nM, above 175 fold and above 10000 nM.
For the compound `CC(C)(O)c1csc(N2CCCN(C(=O)c3ccccc3OC(F)(F)F)CC2)n1` [Example 24, (4-(4-(2-hydroxypropan-2-yl)thiazol-2-yl)-1,4-diazepan-1-yl)(2-(trifluoromethoxy)phenyl)meth-anone], on human orexin-2 receptor, the IC50 came to 216 nM and the “Fold Selectivity OX2R vs. OX1R” value was above 46 fold. Besides, the IC50 on rat orexin-1 receptor was above 10000 nM.
Take `CC(C)(O)c1csc(N2CCCN(C(=O)c3ccccc3C3CC3)CC2)n1` [Example 25, (2-cyclopropylphenyl)(4-(4-(2-hydroxypropan-2-yl)thiazol-2-yl)-1,4-diazepan-1-yl)methanone]: at human orexin-2 receptor, the IC50 came to 108 nM and the “Fold Selectivity OX2R vs. OX1R” value is above 92 fold. The compound further showed an IC50 on rat orexin-1 receptor above 10000 nM.
Turning to `CC(C)(O)c1csc(N2CCCN(C(=O)c3ccc(F)cc3-n3nccn3)CC2)n1` [Example 26, (4-fluoro-2-(2H-1,2,3-triazol-2-yl)phenyl)(4-(4-(2-hydroxypropan-2-yl)thiazol-2-yl)-1,4-diazepan-1-yl)methanone], the 50% inhibitory concentration (IC50) at human orexin-2 receptor is 136 nM; on rat orexin-1 receptor it was above 10000 nM. For the same compound, the “Fold Selectivity OX2R vs. OX1R” value on human orexin-2 receptor was above 73 fold.

Values taken from patent US9732077B2, “Diazepane orexin receptor antagonists” (MERCK SHARP & DOHME CORP., priority 2013, dated 2017).
